Reference: ChEMBL document CHEMBL1142541, “3D-QSAR studies of heterocyclic quinones with inhibitory activity on vascular smooth muscle cell proliferation using pharmacophore-based alignment” (Bioorg Med Chem, 2008)

assay: Inhibition of PDGF-induced proliferation in RAOSMC; design: species or system Rattus norvegicus

SMILES	IC50 [µM]	pIC50
Cc1nc2c([nH]1)C(=O)/C(=N/c1cccc(Br)c1)C(Cl)=C2O	1	–
Cc1ccc(NC2=C(Cl)C(=O)c3nc(C)[nH]c3C2=O)cc1	0.8	–
Cc1nc2c([nH]1)C(=O)/C(=N/c1ccc(Cl)cc1)C(Cl)=C2O	2.8	5.55
O=C1C=C(Nc2ccc(I)cc2)C(=O)c2[nH]c(-c3ccccn3)nc21	20	–
Cc1nc2c(nc1C)C(=O)C(Nc1ccc(F)cc1)=CC2=O	3.1	5.51
O=C1C(Cl)=C(Nc2ccccc2)C(=O)c2[nH]cnc21	5.5	5.26
O=C1C(Cl)=C(Nc2cccc(Cl)c2)C(=O)c2[nH]c(-c3ccncc3)nc21	31	–
O=C1C(Cl)=C(Nc2ccc(F)cc2)C(=O)c2[nH]c(-c3cccnc3)nc21	21	–
Cc1ccc(NC2=C(Br)C(=O)c3nc[nH]c3C2=O)cc1	1	–
O=C1C(Cl)=C(Nc2ccc(Br)cc2)C(=O)c2[nH]c(-c3ccccn3)nc21	6.5	–
O=C1C(Cl)=C(Nc2ccc(OC(F)(F)F)cc2)C(=O)c2nc(-c3ccccn3)c(-c3ccccn3)nc21	1	–
Cc1nc2c([nH]1)C(=O)/C(=N/c1ccc(F)c(F)c1F)C(Cl)=C2O	0.8	–
O=C1C(Cl)=C(Nc2cccc(Br)c2)C(=O)c2[nH]cnc21	1.6	–
Cc1cccc(NC2=C(Cl)C(=O)c3nc(-c4ccncc4)[nH]c3C2=O)c1	60	–
COc1ccc(NC2=C(Cl)C(=O)c3nc(-c4ccncc4)[nH]c3C2=O)cc1	50	4.3
O=C1C=C(Nc2ccc(Cl)cc2)C(=O)c2[nH]c(-c3ccccn3)nc21	13	–
O=C1C(Cl)=C(Nc2ccc(Cl)cc2)C(=O)c2[nH]c(C(F)(F)F)nc21	15	4.82
O=C1C(Cl)=C(Nc2ccc(F)cc2)C(=O)c2[nH]c(-c3ccncc3)nc21	50	–
O=C1C(Cl)=C(Nc2ccc(OC(F)(F)F)cc2)C(=O)c2[nH]c(-c3ccccn3)nc21	6	–
Cc1nc2c(nc1C)C(=O)C(Nc1ccc(Cl)c(Cl)c1)=CC2=O	3.8	–
O=C1C=C(Nc2ccc(OC(F)(F)F)cc2)C(=O)c2[nH]c(-c3ccccn3)nc21	20	–

SMILES	IC50 [µM]	pIC50
CCOc1ccc(NC2=C(Cl)C(=O)c3nc(-c4cccnc4)[nH]c3C2=O)cc1	42	–
Cc1nc2c(nc1C)C(=O)C(Nc1ccc(Cl)cc1)=CC2=O	3.3	–
O=C1C(Cl)=C(Nc2ccc(Cl)c(F)c2)C(=O)c2[nH]c(-c3ccncc3)nc21	25	4.6
CCOc1ccc(NC2=CC(=O)c3nc(C)c(C)nc3C2=O)cc1	1.5	–
O=C1C(Cl)=C(Nc2cccc(Br)c2)C(=O)c2[nH]c(-c3ccccn3)nc21	20	–
CCOc1ccc(NC2=CC(=O)c3nc(-c4ccccn4)[nH]c3C2=O)cc1	6.5	–
Cc1nc2c([nH]1)C(=O)/C(=N/c1ccccc1)C(Cl)=C2O	0.8	–
Cc1nc2c([nH]1)C(=O)/C(=N/c1ccc(C(F)(F)F)cc1)C(Cl)=C2O	0.6	–
O=C1C(Cl)=C(Nc2ccc(OC(F)(F)F)cc2)C(=O)c2[nH]cnc21	2.5	–
O=C1C(Cl)=C(Nc2ccc(O)cc2)C(=O)c2nc(-c3ccccn3)c(-c3ccccn3)nc21	5.5	5.26
O=C1C(Cl)=C(Nc2ccc(F)cc2)C(=O)c2[nH]c(C(F)(F)F)nc21	12	–
Cc1nc2c([nH]1)C(=O)/C(=N/c1cccc(Cl)c1Cl)C(Cl)=C2O	0.6	–
O=C1C(Br)=C(Nc2ccc(Cl)cc2)C(=O)c2[nH]cnc21	4	–
O=C1C(Cl)=C(Nc2ccc(Cl)c(Cl)c2)C(=O)c2nc(-c3ccccn3)c(-c3ccccn3)nc21	1	–
Cc1ccc(NC2=C(Cl)C(=O)c3nc(-c4cccnc4)[nH]c3C2=O)cc1	45	4.35
Cc1ccc(NC2=C(Cl)C(=O)c3nc(C(F)(F)F)[nH]c3C2=O)cc1	40	–
O=C1C(Cl)=C(Nc2ccccc2F)C(=O)c2[nH]cnc21	1.7	5.77
O=C1C(Cl)=C(Nc2ccc(Cl)cc2)C(=O)c2[nH]c(-c3cccnc3)nc21	20	–
O=C1C(Cl)=C(Nc2ccccc2)C(=O)c2[nH]c(C(F)(F)F)nc21	50	–
O=C1C(Cl)=C(Nc2cc(F)c(F)c(F)c2)C(=O)c2nc(-c3ccccn3)c(-c3ccccn3)nc21	1.2	–
O=C1C(Cl)=C(Nc2ccccc2)C(=O)c2nc(-c3ccccn3)c(-c3ccccn3)nc21	3.1	–

SMILES	IC50 [µM]	pIC50
CCOc1ccc(NC2=C(Cl)C(=O)c3nc(-c4ccncc4)[nH]c3C2=O)cc1	75	–
O=C1C(Br)=C(Nc2ccc(F)cc2)C(=O)c2[nH]cnc21	1	6
Cc1nc2c([nH]1)C(=O)/C(=N/c1ccc(I)cc1)C(Cl)=C2O	1	–
O=C1C(Cl)=C(Nc2ccc(Cl)c(Cl)c2)C(=O)c2[nH]c(-c3ccncc3)nc21	13	–
O=C1C(Cl)=C(Nc2ccc(F)cc2F)C(=O)c2[nH]cnc21	2.7	–
O=C1C(Br)=C(Nc2cccc(I)c2)C(=O)c2[nH]cnc21	2.5	–
N#Cc1ccc(NC2=C(Cl)C(=O)c3nc[nH]c3C2=O)cc1	2.7	–
Cc1nc2c([nH]1)C(=O)/C(=N/c1ccc(F)cc1)C(Cl)=C2O	3	–
O=C1C(Cl)=C(Nc2ccc(C(F)(F)F)cc2)C(=O)c2[nH]c(C(F)(F)F)nc21	20	–
O=C1C(Cl)=C(Nc2ccc(F)cc2)C(=O)c2[nH]cnc21	1.2	–
O=C1C(Cl)=C(Nc2ccc(Br)cc2)C(=O)c2[nH]c(-c3ccncc3)nc21	60	–
O=C1C(Br)=C(Nc2ccc(C(F)(F)F)cc2)C(=O)c2[nH]cnc21	3.1	–
Cc1ccc(NC2=C(Cl)C(=O)c3nc[nH]c3C2=O)cc1	1.4	–
O=C1C(Cl)=C(Nc2ccc(Br)cc2)C(=O)c2[nH]cnc21	2	–
O=C1C(Cl)=C(Nc2ccc(Cl)cc2)C(=O)c2nc(-c3ccccn3)c(-c3ccccn3)nc21	1.5	5.82
Cc1nc2c([nH]1)C(=O)/C(=N/c1ccc(Cl)cc1Cl)C(Cl)=C2O	0.8	–
O=C1C(Br)=C(Nc2cccc(Cl)c2)C(=O)c2[nH]cnc21	3	–
O=C1C(Cl)=C(Nc2ccc(F)c(F)c2)C(=O)c2[nH]cnc21	1.1	–
O=C1C=C(Nc2ccc(Br)cc2)C(=O)c2[nH]c(-c3ccccn3)nc21	12	–
Cc1nc2c(nc1C)C(=O)C(Nc1cc(F)cc(F)c1)=CC2=O	4.5	–
COc1ccc(NC2=C(Cl)C(=O)c3nc(-c4ccccn4)c(-c4ccccn4)nc3C2=O)cc1	3.5	5.46

SMILES	IC50 [µM]	pIC50
O=C1C(Cl)=C(Nc2ccc(I)cc2)C(=O)c2[nH]cnc21	1.3	5.89
O=C1C(Cl)=C(Nc2cccc(Br)c2)C(=O)c2[nH]c(-c3ccncc3)nc21	20	4.7
O=C1C(Br)=C(Nc2cccc(C(F)(F)F)c2)C(=O)c2[nH]cnc21	3	–
O=C1C(Cl)=C(Nc2ccc(I)cc2)C(=O)c2[nH]c(C(F)(F)F)nc21	25	–
CCc1ccc(NC2=C(Cl)C(=O)c3nc(C)[nH]c3C2=O)cc1	3	5.52
O=C1C(Cl)=C(Nc2ccc(Cl)cc2)C(=O)c2[nH]c(-c3ccccn3)nc21	12	–
Cc1nc2c([nH]1)C(=O)/C(=N/c1ccc(F)cc1F)C(Cl)=C2O	1.2	–
O=C1C(Cl)=C(Nc2cccc(F)c2)C(=O)c2[nH]c(-c3ccncc3)nc21	19	–
Cc1nc2c(nc1C)C(=O)C(Nc1ccc(Br)cc1)=CC2=O	1.1	–
O=C1C(Cl)=C(Nc2cccc(I)c2)C(=O)c2[nH]cnc21	1.3	–
O=C1C(Br)=C(Nc2ccccc2)C(=O)c2[nH]cnc21	1.1	–
Cc1nc2c([nH]1)C(=O)/C(=N/c1cccc(Cl)c1)C(Cl)=C2O	0.9	–
O=C1C(Cl)=C(Nc2cccc(Cl)c2)C(=O)c2[nH]c(-c3ccccn3)nc21	3.5	–
Cc1nc2c([nH]1)C(=O)C(Nc1ccc(OC(F)(F)F)cc1)=C(Cl)C2=O	3	–
O=C1C(Cl)=C(Nc2ccc(F)cc2)C(=O)c2nc(-c3ccccn3)c(-c3ccccn3)nc21	1	–
O=C1C(Cl)=C(Nc2ccc(C(F)(F)F)cc2)C(=O)c2[nH]cnc21	2.5	5.6
O=C1C(Cl)=C(Nc2cccc(Cl)c2)C(=O)c2[nH]cnc21	1.4	–
O=C1C(Br)=C(Nc2cccc(Br)c2)C(=O)c2[nH]cnc21	5.3	–
